Key:
[1] = tested on: CD90+CD271+ bone marrow-derived mesenchymal stem cells; test: Urea assay in CD90+CD271+ bone marrow-derived mesenchymal stem cells; format: cell-based, human; conditions: hexachlorophene 4 μM, PN-3-13 20 μM, IC-2 40 μM; day 8 plus 96 h ammonium chloride
Description: A urea assay was performed according to the following protocol. CD90^+CD271^+ bone marrow-derived mesenchymal stem cells were seeded on a 24-well plate at a cell density of 1.8×10^4 cells/cm^2. This day was designated as day 0. At day 1 corresponding to the next day, each medium was changed to a medium containing hexachlorophene (at a final concentration of 4 μM), HC-2 (at a final concentration of 20 μM), PN-3-13 (at a final concentration of 20 μM), IC-2 (at a final concentration of 40 μM), or 0.1% DMSO. At day 4, the medium was changed in a manner similar to that at day 1, and the cells were cultured until day 8. At day 8, the medium was removed, and replaced with a medium containing ammonium chloride (Nacalai Tesque) at a final concentration of 5 mM. The cells were further cultured for 96 h. At 96 h after the addition of ammonium chloride, levels of urea in the medium were determined using a QuantiChrom Urea Assay Kit (BioAssay Systems) according to the attached protocol by reading the absorbance at a wavelength of 520 nm with a microplate reader. The levels of urea were calculated based on a standard sample according to the attached calculation method. As a negative control for the urea assay, used were CD90^+CD271^+ bone marrow-derived mesenchymal stem cells that were seeded one day before the day of the immunostaining and were not subjected to the differentiation induction.

[2] = tested on: bone marrow-derived mesenchymal stem cells; test: RT-PCR of albumin in sorted bone marrow-derived mesenchymal stem cells; format: cell-based, human; conditions: 45 μM
Description: Cells were seeded on a 6-well plate at a cell density of 1.8×10^4 cells/cm^2. This day was designated as day 0. At day 1 corresponding to the next day, the medium was changed to a medium containing IC-2 (at a final concentration of 25, 35, or 45 μM) or 0.1% DMSO. At day 4, the medium was changed in a manner similar to that at day 1, and at day 8, the cells were reseeded and subcultured at a cell density of 1.8×10^4 cells/cm^2. After that, the medium was replaced twice during 8 days, and the cells were subcultured every 8 days. Then, the similar operation was carried out until day 24. At days 8, 16, and 24 after the initiation of the induction, TRIzol (Invitrogen) was used to extract total RNA according to the attached instruction. After the extraction, deoxyribonuclease (Nippon Gene) was added, and the mixture was incubated at 37° C. for 30 min to remove DNA. In a reverse transcription reaction, SuperScriptII Reverse Transcriptase (Invitrogen) and Oligo(dT)15 primer were added to 1 μg of RNA to convert it into cDNA. In a RT-PCR method, the cDNA was diluted by 5 times. Next, 1 μl of the cDNA was used as a template. Then, rTaq DNA polymerase (TOYOBO) was used to amplify the cDNA. MQ water was used as a negative control. cDNA from Huh-7 or UE7T-13 cells was used as a positive control.
In order to determine hepatocyte differentiation markers, levels of expression of albumin were measured. […]

[3] = tested on: clinical specimen-derived mesenchymal stem cells; test: Immunofluorescence staining in clinical specimen-derived mesenchymal stem cells; format: cell-based, human; conditions: day 8; PN-3-13 20 μM, IC-2 40 μM
Description: A cover glass that had been sterilized with 100% ethanol was placed on a 12-well plate. Cells were seeded on the cover glass at a cell density of 1.8×10^4 cells/cm^2. This day was designated as day 0. At day 1 corresponding to the next day, the medium was changed to a medium containing HC-2 (at a final concentration of 20 μM), PN-3-13 (at a final concentration of 20 μM), IC-2 (at a final concentration of 40 μM), or 0.1% DMSO. At day 4, the medium was changed in a manner similar to that at day 1. At day 8, the culture medium was removed and the cells were washed twice with PBS. Then, in order to perform immunostaining of albumin, the cells were fixed for 20 min with 4% paraformaldehyde (Nacalai Tesque) containing 8% sucrose (Wako Pure Chemical Industries, Ltd.). For immunostaining of C/EBPα or CYP1A1, the cells were fixed for 20 min with 4% paraformaldehyde. After that, the cells were permeated with 0.2% Triton X-100 (Wako Pure Chemical Industries, Ltd.) for 10 min and were then blocked in 3% BSA (Nacalai Tesque) at room temperature for 30 min without shaking.
After the primary antibody reaction, the cells were washed with 0.1% BSA/PBS. […] The cells were incubated with each antibody, and were kept in a dark condition at room temperature for 1 h to carry out a secondary antibody reaction. Their nuclei were stained with DAPI (Cell Signaling Technology Inc.). […]

[4] = tested on: UE7T-13 cells; test: Urea assay (UE7T-13); format: cell-based, human; conditions: day 16
Description: The cells were plated on a 24-well plate, and were cultured in a medium containing IC-2, etc. Ammonium chloride (at a final concentration of 5 mM) was added to the medium, and the cells were cultured for 48, 72, and 96 h. Then, an amount of urea in the medium was determined using a QuantiChrom Urea Assay Kit (BioAssay Systems) and a fluorescence plate reader (TECAN) at a wavelength of 520 nm.

[5] = tested on: UE7T-13 cells; test: Proliferation potential (toxicity), MTT assay (UE7T-13)
[6] = tested on: UE7T-13 cells; test: Immunocytochemistry of hepatocyte markers (UE7T-13); format: cell-based, human; conditions: day 16
Description: A cover glass (22×22 mm, […]) was sterilized with 70% EtOH and placed in a 6-well plate. Next, cells were seeded on the cover glass and cultured in a medium containing IC-2, etc. At 8, 16, and […] after the initiation of the culture, the cells were washed twice with PBS. Then, the cells were treated with 4% paraformaldehyde/PBS for 20 min and fixed onto the cover glass. After that, the cells were permeated with 0.2% Triton X-100 for 10 min. Subsequently, the cells were blocked with 3% BSA/PBS for 30 min. An anti-albumin antibody, anti-C/EBP antibody, anti-AFP antibody, or anti-CYP1A1 antibody was used as a primary antibody, and the cells were incubated therewith at 4° C. overnight. Next, an Alexa Fluoro 488 goat anti-mouse antibody or Alexa Fluoro 594 goat anti-rabbit antibody was used as a secondary antibody, and the cells were incubated therewith at room temperature for 1 h. DAPI was used for nuclear staining. Thereafter, 50% glycerol diluted with PBS was used to mount the cover glass. Finally, the cells were observed under a confocal laser microscope. The cells which had been cultured with 0.1% DMSO were used as a control.

(6S,9aS)-6-phenyl-8-naphthalen-1-ylmethyl-4,7-dioxo-hexahydro-pyrazino[1,2-a]pyrimidine-1-carbocylic acid benzylamide [IC-2]
cellular urea synthesis compared with negative control (0.1% DMSO) [1]: apparent increase
albumin expression compared with 0.1% DMSO [2]: remarkable increase
levels of expression of albumin, C/EBPα, and CYP1A1 compared with negative control (0.1% DMSO) [3]: apparently increased
cellular urea synthesis compared with negative control (0.1% DMSO) [4]: remarkably increased
concentration with very low cell toxicity toward UE7T-13 cells ([5]; days 2, 4, 8 of treatment): ≤ 20 µM
concentration at which proliferation potential did not remain ([5]; days 2, 4, and 8): 50 µM
levels of expression of albumin, C/EBPα, CYP1A1, and CYP3A4 [6]: remarkably increased

— patent US9555061B2, “Synthesis and analysis of compounds capable of inducing differentiation of human mesenchymal stems cells into hepatocytes” (National University Corporation Torrori University, priority 2011, dated 2017)
